Read-outs that look alike come from different tables or passages of the source.
Conditions: mouse, in vivo
Protocol: Solid phase extraction (SPE) and HPLC analysis of plasma were performed as previously described with minor modifications, [23]. SPE was performed using Sep-Pak C18 columns (Waters, Mississauga, ON). The column was activated using methanol, followed by water. 100 µL of plasma was then loaded on to the activated column. This was followed by successive washing steps with water and hexane. The analyte was eluted from the column using methanol and then dried under a stream of N2. The sample was reconstituted in DMSO:Methanol 1∶1 v/v prior to HPLC analysis. […] The radioactivity in each eluate was determined by liquid scintillation counting. […] The methanol eluates were used for HPLC analysis.
Separation was performed using a Waters C18 reversed-phase HPLC column (XTerra RP-C18, 5 µm, 4.6×250 mm I.D.) Analytes were eluted using an isocratic-gradient of 20 mM ammonium sulphate buffer (solvent A) and methanol (solvent B). The mobile phase consisted of solvent A/solvent B; 60/40% for 0–5 min, followed by a linear gradient of 60/40% to 25/75% for 5–45 and 25/75% for 45–50 min at a flow rate of 1.0 mL/min and UV detection at 280 nm. The HPLC eluate from the UV detector was collected every minute for over 50 min in eppendorf tubes and radioactivity in each sample was determined.

SMILES: C[C@]12CC[C@@H]3c4ccc(O)cc4CC[C@H]3[C@@H]1CC[C@@H]2O [Estradiol, estradiol]
- % of total radioactivity in plasma (2 h): 2.2±1.23%
- % of total radioactivity in plasma (6 h): 3.2±0.2%
- % of total radioactivity in plasma (48 h): 3.2±0.45%

SMILES: C[C@]12CC[C@@H]3c4ccc(O)cc4CC[C@H]3[C@@H]1CCC2=O [Estrone, estrone]
- % of total radioactivity in plasma (2 h): 1.02±0.24%
- % of total radioactivity in plasma (6 h): 1.7±0.8%

— paper PMC3661587, “Estrone-3-Sulphate, a Potential Novel Ligand for Targeting Breast Cancers” (PLoS ONE, 2013)
